Test results from article PMC7181131, “N-Pyrazinoyl Substituted Amino Acids as Potential Antimycobacterial Agents—the Synthesis and Biological Evaluation of Enantiomers” (Molecules, 2020).
pIC50: −log10 of the molar value. In brackets after ≈: the same amount, converted by molar mass. Like-named read-outs stand apart in the source and are kept apart here.

Assays:
[1] = system: Mtb H37Ra ITM-M006710 (ATCC 9431); test: Microplate Alamar Blue Assay (MABA) microdilution, Mtb H37Ra; assay type: cell-based, Mycobacterium tuberculosis; conditions: for MIC: Mycobacterium tuberculosis
[2] = system: M. smegmatis DSM 43465 (ATCC 607); test: Microplate Alamar Blue Assay (MABA) microdilution, M. smegmatis; assay type: cell-based, Mycobacterium smegmatis
[3] = system: Mycobacterium aurum DSM 43999 (ATCC 23366); test: Microplate Alamar Blue Assay (MABA) microdilution, M. aurum; assay type: cell-based
HepG2 cell line [4] = test: HepG2 cytotoxicity, CellTiter 96 (MTS) assay; assay type: cell-based, human; conditions: for pIC50: Homo sapiens, read-out: HepG2 IC50
[5] = system: Staphylococcus epidermidis CCM 4418 (ATCC 12228); test: Antibacterial microdilution broth method, SE; assay type: cell-based; conditions: 24 h, read-out: MIC SE
[6] = system: Candida albicans CCM 8320 (ATCC 24433); test: Antifungal microdilution broth method, CA; assay type: cell-based; conditions: 24 h, read-out: MIC CA
[7] = system: Candida krusei CCM 8271 (ATCC 6258); test: Antifungal microdilution broth method, CK; assay type: cell-based; conditions: Pichia kudriavzevii, 24 h, read-out: MIC CK
[8] = system: Candida parapsilosis CCM 8260 (ATCC 22019); test: Antifungal microdilution broth method, CP; assay type: cell-based; conditions: Lodderomyces parapsilosis, 24 h, read-out: MIC CP
[9] = system: Candida tropicalis CCM 8264 (ATCC 750); test: Antifungal microdilution broth method, CT; assay type: cell-based; conditions: 24 h, read-out: MIC CT
[10] = system: Aspergillus fumigatus ATCC 204305; test: Antifungal microdilution broth method, AF; assay type: cell-based; conditions: ATCC204305, 48 h, read-out: MIC AF
[11] = system: Aspergillus flavus CCM 8363; test: Antifungal microdilution broth method, AFla; assay type: cell-based; conditions: CCM8363, read after 48 h (filamentous fungi), read-out: MIC AFla
[12] = system: Lichtheimia corymbifera CCM 8077; test: Antifungal microdilution broth method, LC; assay type: cell-based; conditions: CCM8077, 48 h, read-out: MIC LC
[13] = system: Trichophyton interdigitale CCM 8377 (ATCC 9533); test: Antifungal microdilution broth method, TI; assay type: cell-based; conditions: 48 h, read-out: MIC TI
some G- bacteria = test: Antibacterial microdilution broth method, strains not given; assay type: cell-based; conditions: read-out: MIC against some G- bacteria
[14] = system: Klebsiella pneumoniae CCM 4415 (ATCC 10031); test: Antibacterial microdilution broth method, KP; conditions: read after 24 h of incubation
HepG2 cell line [15] = system: HepG2 cell line; set-up: method as in PMID 23357778; conditions: converted to µM based on the literature value 1184.3 ± 120.2 µg/mL ref 62; cited from earlier work
[16] = Solubility in the cultivation medium of the antibacterial and antifungal screening; conditions: for solubility in the cultivation medium: antibacterial testing medium; for solubility in the medium: antifungal testing medium
[17] = system: Mycobacterium tuberculosis H37Rv CNCTC My 331/88 (ATCC 27294); test: Antimycobacterial pre-screening, microdilution broth, Mtb H37Rv; assay type: cell-based; conditions: Middlebrook 7H9 broth of declared pH 6.6
[18] = system: M. kansasii CNCTC My 235/80 (ATCC 12478); test: Antimycobacterial pre-screening, microdilution broth, M. kansasii; assay type: cell-based; conditions: Mycobacterium kansasii, ATCC12478; Middlebrook 7H9 broth of declared pH 6.6
[19] = system: M. avium ssp. avium CNCTC My 80/72 (ATCC 15769); test: Antimycobacterial pre-screening, microdilution broth, M. avium; assay type: cell-based; conditions: Mycobacterium avium, ATCC15769; Middlebrook 7H9 broth of declared pH 6.6
[20] = system: Mycobacterium tuberculosis H37Rv CNCTC My 331/88 (ATCC 27294); set-up: method as in doi:10.3184/030823407×200001; conditions: study by Pinheiro et al. ref 32; cited from earlier work
[21] = pH 6.6, read-out: MIC Mtb H37Ra
[22] = pH 6, calculated from µg/mL, read-out: MIC Mtb H37Ra
[23] = Mycolicibacterium smegmatis, pH 6, read-out: MIC M. smegmatis µg/mL
[24] = Mycolicibacterium smegmatis, pH 6.6, read-out: MIC M. smegmatis
[25] = Mycolicibacterium aurum, pH 6, read-out: MIC M. aurum µg/mL
[26] = Mycolicibacterium aurum, pH 6.6, read-out: MIC M. aurum
[27] = Mycolicibacterium smegmatis, pH 6; read-out: MIC M. smegmatis
[28] = Mycolicibacterium smegmatis, pH 6.6; read-out: MIC M. smegmatis
[29] = Mycolicibacterium aurum, pH 6; read-out: MIC M. aurum
[30] = Mycolicibacterium aurum, pH 6.6; read-out: MIC M. aurum

Compound	MIC ([1]; pH 6)	MIC ([1]; pH 6, read-out: MIC Mtb H37Ra)	MIC [1, 21]	MIC [1, 22]	MIC [2, 23]	MIC [2, 24]	MIC [3, 25]	MIC [3, 26]	MIC [5]	MIC [6]	MIC [7]	MIC [8]	MIC [9]	MIC [10]	MIC [2, 27]	MIC [2, 28]	MIC [3, 29]	MIC [3, 30]	solubility in the cultivation medium [16]	solubility in the medium [16]	other results
CCOC(=O)[C@H](C)NC(=O)c1cnccn1 [PC-L-Ala-Et, ethyl (pyrazine-2-carbonyl)-L-alaninate]	3.91 µg/mL	3.91 µg/mL	≥ 500 µg/mL	17.5 µM	≥ 125 µg/mL	≥ 500 µg/mL	≥ 125 µg/mL	≥ 500 µg/mL	250 µM (≈ 55.8 µg/mL)	> 500 µM	> 500 µM	> 500 µM	> 500 µM	> 500 µM							times lower MIC of the ethyl ester compared to the free acid ([1]; Mtb H37Ra, pH 6, PC-L-Ala-Et vs PC-L-Ala): at least 64 times; MIC ([1]; pH 6, Table 4, read-out: Mtb pH 6 MIC): 18 µM; HepG2 IC50 (HepG2 cell line [4]; 24 h incubation, CellTiter 96): above the tested range; pIC50 (HepG2 cell line [4]; HepG2, 24 h incubation, CellTiter 96): < 3.00; MIC [11]: > 500 µM; MIC [12]: > 500 µM; MIC [13]: 500 µM (≈ 112 µg/mL); MIC (some G- bacteria): 125 µM (≈ 27.9 µg/mL); MIC KP [14]: > 500 µM
NC(=O)c1cnccn1 [PZA, pyrazinamide, reference compound]		< 3.91 µg/mL	≥ 500 µg/mL	< 31.8 µM											≥ 500 µg/mL	≥ 500 µg/mL	250 µg/mL (≈ 2030 µM)	≥ 500 µg/mL			MIC ([1]; pH 6, read-out: Mtb pH 6 MIC): 31.8 µM; IC50 (HepG2 cell line [15]): 9620 µM
COC(=O)C[C@@H](NC(=O)c1cnccn1)C(=O)OC [PC-D-Asp-diMe, dimethyl (pyrazine-2-carbonyl)-D-aspartate]	≥ 125 µg/mL	≥ 125 µg/mL	≥ 125 µg/mL	≥ 468 µM		≥ 125 µg/mL		≥ 125 µg/mL							≥ 125 µg/mL		≥ 125 µg/mL		insoluble	insoluble	
C=C(NC(=O)c1cnccn1)C(=O)OC [PC-MeAcr, methyl 2-(pyrazine-2-carboxamido)acrylate]	62.5 µg/mL	62.5 µg/mL	15.6 µg/mL	302 µM	≥ 125 µg/mL	31.2 µg/mL (≈ 151 µM)	62.5 µg/mL (≈ 302 µM)	62.5 µg/mL (≈ 302 µM)	> 125 µM	> 125 µM	> 125 µM	> 125 µM	> 125 µM	> 125 µM							MIC ([1]; pH 6, read-out: Mtb pH 6 MIC): 302 µM; pIC50 (HepG2 cell line [4]; HepG2, 24 h): < 3.30; MIC [17]: 50 µg/mL (≈ 241 µM); MIC [18]: 100 µg/mL (≈ 483 µM); MIC [19]: > 100 µg/mL; MIC [11]: > 125 µM; MIC [12]: > 125 µM; MIC [13]: > 125 µM; MIC on Mtb H37Rv [20]: 50 µg/mL (≈ 241 µM)
CC[C@H](C)[C@H](NC(=O)c1cnccn1)C(=O)OC [PC-L-Ile-Me, methyl (pyrazine-2-carbonyl)-L-isoleucinate]	250 µg/mL	250 µg/mL	≥ 500 µg/mL	995 µM											≥ 500 µg/mL	≥ 500 µg/mL	≥ 500 µg/mL	≥ 500 µg/mL	insoluble	insoluble	
CC[C@@H](C)[C@@H](NC(=O)c1cnccn1)C(=O)OC [PC-D-Ile-Me, methyl (pyrazine-2-carbonyl)-D-isoleucinate]	250 µg/mL	250 µg/mL	≥ 500 µg/mL	995 µM											250 µg/mL (≈ 995 µM)	≥ 500 µg/mL	250 µg/mL (≈ 995 µM)	≥ 500 µg/mL	insoluble	insoluble	
